Converted amounts (≈) assume the structure as drawn. Where a SMILES comes first, the peptide text is derived from it. Bridges are numbered along the chain shown (N, C = ends).
Tests used:
[1] = Peptide stability with log-phase Kp-1705 (bacterial proteases); format: in vitro ADME, K. pneumoniae; settings: suspension of log-phase Kp-1705 bacteria, log-phase Kp-1705 (5 × 10^7 CFU/ml), 50 mM HEPES pH 7.4, 37 °C, LC–MS/MS, read-out: MTD12813 found intact
Experimental: (§1) MTD12813 (final concentration of 100 µg/ml) was added to either 90% human EDTA plasma or 90% human serum and incubated at 37 °C for 48 h. Samples were processed by addition of 10% HOAc and 5% ACN (final concentrations) at time 0 and 48 h, and MTD12813 was quantified by C18 RP-HLPC on an Acquity H-Class UPLC with an analytical PDA detector using Empower 3 software (Waters). All samples were performed with technical replicates and analyzed by UPLC in duplicate and the experiment repeated once. […] A time 0 h sample was collected, and the remaining suspension incubated at 37 °C for 24 h. Samples were processed by addition of 5% formic acid/5% acetonitrile, vortexed, and clarified at 22,000×g for 10 min. Supernatant MTD12813 was then quantified by LC–MS/MS as described in PK section above. All samples were performed with technical replicates and analyzed by LC–MS/MS in duplicate.

[2] = Stability in aqueous media; format: physicochemical; settings: including acidic solutions as low as pH 2.0; preliminary, data not shown
[3] = test system: Kp-1705; assay: Challenge with MTD12813-preincubated Kp-1705, survival; format: in vivo, BALB/c mice
Experimental: Cryopreserved Kp-1705 was suspended in PBS to a density of ca. 1 × 10^9 CFU/ml, and incubated with saline or 1.25 µg/ml MTD12813 at room temperature for 1 h. Mice (n = 26) were then infected i.p. with 500 µl of saline- or MTD12813- pretreated Kp-1705, and a third cohort (n = 12) received 500 µl i.p. of 1.25 µg/ml MTD12813 immediately following infection with saline treated Kp-1705. Five mice from each cohort were euthanized 4 h p.i., and peritoneal lavage was collected for bacterial burden determination and cytospin preparation. In vitro antibacterial activity of MTD12813 (1.25 μg/ml) -treated cells (1 h; 37 °C) was determined by plating saline or peptide treated cells on TSA plates. Growth kinetics of saline and MTD12813-treated cells was determined by diluting samples from the 1 h incubation mixtures 1:40 into TSB and monitoring growth (620 nm) for 5.5 h at 37 °C. Antibacterial activity of MTD12813 in PF was determined by i.p. injection of naïve male BALB/c mice (n = 5 per group) with 1.25 mg/kg of MTD12813 or saline i.p. (10 ml/kg). […] Peritoneal fluid was clarified by centrifugation at 1200×g and an aliquot used to quantify MTD12813 by LC–MS/MS, as described above. Antimicrobial activity was determined by incubating PF (9:1 vol/vol) with Kp-1705 at a final density of 3 × 10^7 CFU/ml. […]

[4] = Peptide stability with log-phase E. coli ATCC-BAA-2340 (bacterial proteases); format: in vitro ADME; settings: suspension of log-phase E. coli ATCC-BAA-2340 bacteria, log-phase E. coli ATCC-BAA-2340, 50 mM HEPES, 37 °C, LC–MS/MS, read-out: MTD12813 found intact
Experimental: as §1

[5] = test system: K. pneumoniae BAA-1706; assay: microbe, parasite or virus in culture; format: cell-based; settings: K. pneumoniae BAA-1706, no MDR factor
Experimental: (§2) Bacterial strains were obtained from American Type Culture Collection. K. pneumoniae strains included BAA-1705 (blaKPC-2, hypermucoid), BAA-2146 (blaNDM-1), BAA-700603 (SHV-18, extended spectrum β-lactamase, ESBL), and BAA-1706 (non-CRE reference strain). E. coli strains included BAA-2340 (blaKPC-2), BAA-2471 (blaNDM-1), and ML35 (non-CRE reference strain).
(§3) Minimum inhibitory concentration (MIC) assays were performed ± 50% heat-inactivated mouse serum using Clinical and Laboratory Standards Institute (CLSI; document M07-A9) protocols. Bacteria (5 × 10^5 CFU/ml) were incubated with antibiotics or peptide for 20 h at 37 °C, and bacterial growth was determined by A620 using a SpectraMax M5e plate reader.

[6] = test system: E. coli BAA-2340 (KPC-2); assay: microbe, parasite or virus in culture; format: cell-based; settings: E. coli BAA-2340, KPC-2
Experimental: as §2, §3

[7] = test system: E. coli ML35; assay: microbe, parasite or virus in culture; format: cell-based; settings: E. coli ML35, no MDR factor
Experimental: as §2, §3

[8] = test system: K. pneumoniae BAA-2146 (NDM-1); assay: microbe, parasite or virus in culture; format: cell-based
Experimental: as §2, §3

[9] = test system: K. pneumoniae BAA-1705 (KPC-2); assay: microbe, parasite or virus in culture; format: cell-based; settings: 20 h, 37 °C
Experimental: as §2, §3

[10] = test system: K. pneumoniae 700603 (ESBL); assay: microbe, parasite or virus in culture; format: cell-based
Experimental: as §2, §3

[11] = test system: E. coli BAA-2471 (NDM-1); assay: microbe, parasite or virus in culture; format: cell-based
Experimental: as §2, §3

[12] = test system: CRE and non-CRE strains of K. pneumoniae and E. coli; format: cell-based; settings: standard CLSI assay conditions
Experimental: as §2, §3

[13] = 50% heat inactivated mouse serum
[14] = CLSI, 20 h, 37 °C, A620, no serum

For `CC[C@H](C)[C@@H]1NC(=O)[C@@H]2CSSC[C@H](NC(=O)[C@H]([C@@H](C)CC)NC(=O)[C@@H]3CSSC[C@H](NC1=O)C(=O)N[C@@H](C(C)C)C(=O)NCC(=O)N[C@@H](CCCNC(=N)N)C(=O)NCC(=O)N3)C(=O)N[C@@H](C(C)C)C(=O)N[C@@H](CCCNC(=N)N)C(=O)N[C@@H](CCCNC(=N)N)C(=O)N[C@@H](CCCNC(=N)N)C(=O)N2` [MTD12813] (cyclo(CICVGRGCICVRRR); disulfide 1-10, 3-8), the remaining at 24 h, 1.25 µg/ml [1] was 72.4 ± 0.93%, the “stability in aqueous media” value [2] was “exceedingly stable” and the “survival, equal quantity of peptide given immediately following infection” value ([3]; 0.5 ml of 1.25 µg/ml i.p. after saline-preincubated Kp-1705, n = 12) was “no statistically significant protection”. For the same compound, the “survival after challenge with preincubated bacteria” value ([3]; Kp-1705 preincubated 1 h with 1.25 µg/ml MTD12813, 500 µl i.p., n = 26) was “protected”, the remaining at 24 h, 1.25 µg/ml [4] was 81.3 ± 2.1% and the MIC [5, 13] was > 100 µg/mL. The MIC [5, 14] was 3.13 µg/mL (≈ 1.99 µM), the MIC [6, 13] was > 100 µg/mL and the MIC [6, 14] was 6.25 µg/mL (≈ 3.98 µM). The MIC [7, 13] was > 100 µg/mL, the MIC [7, 14] was 3.13 µg/mL (≈ 1.99 µM) and the MIC [8, 13] was > 100 µg/mL. The MIC [8, 14] was 6.25 µg/mL (≈ 3.98 µM), the MIC ([9]; CLSI M07-A9, 5 × 10^5 CFU/ml, A620, no serum) was 6.25 µg/mL (≈ 3.98 µM) and the MIC ([9]; in the presence of 50% heat inactivated mouse serum, A620) was > 100 µg/mL. For the same compound, the MIC [10, 13] was > 100 µg/mL, the MIC [10, 14] was 6.25 µg/mL (≈ 3.98 µM) and the MIC [11, 13] was 100 µg/mL (≈ 63.6 µM). For the same compound, the MIC [11, 14] was 3.13 µg/mL (≈ 1.99 µM) and the “MIC against all seven organisms of the panel” value [12] was 3.13 to 6.25 µg/mL.
